Data taken from ChEMBL document CHEMBL3507680, “University of Dundee, Gates Library screen for HepG2 cell viability”.

Test: Human HepG2 cell viability assay in 384 well format
Assay type: toxicity, cell-based
Set-up: dose 125 nL, time 70.5 hour; concentration not given beside the values
Details: HepG2 cells, read-out: Inhibition

Row | Compound | cytotoxicity at 70.5 h
1 | CO[C@H]1CCN(C(=O)Cc2ccc(F)cc2)[C@H]1Cc1ccncc1 | -8.07%
2 | COC[C@@]12CCC[C@@H]1CN(C(=O)COC1CCCC1)C2 | -6.5%
3 | COC[C@@]12CCC[C@@H]1CN(C(=O)N1CCCC1)C2 | -6.53%
4 | CCN1C[C@H]2CCN(C(=O)Cc3cccc(OC)c3)CC[C@H]2S1(=O)=O | -8.13%
5 | Cn1ccnc1CN1CCC2(COCCN(S(=O)(=O)C3CC3)C2)C1 (stereo not drawn) | -10.6%
6 | CS(=O)(=O)N1CCCC12CCN(Cc1ccoc1)CC2 | -3.22%
7 | CC(C)CNC(=O)C1=NOC2(CCN(Cc3ccoc3)C2)C1 (stereo not drawn) | -0.398%
8 | C[C@H]1CN(C(=O)c2cccnc2)C[C@@]12CCN(CCN1CCCC1)C2=O | -6.14%
9 | Cc1cccc(CN2CC[C@H]3OCC[C@@]3(C(=O)N3CCOCC3)C2)n1 | -4.06%
10 | CN(C)C(=O)[C@H]1C[C@@H]2CN(S(=O)(=O)Cc3ccccc3)C[C@H]1O2 | -17.1%
11 | Cn1cc(-c2cnc(N3CCOCC3)nc2)cc1C(=O)N1CCOCC1 | -22%
12 | COCCC(=O)N1CC2(CCN(Cc3ccoc3)C2)C1 | 33.7%
13 | COCC1CN(C(=O)c2ccoc2C)Cc2nccn2C1 (stereo not drawn) | 22.7%
14 | COCC1CN(C(=O)c2cccn2C)Cc2nccn2C1 (stereo not drawn) | -18.2%
15 | Cc1ccc(CN2CCCC3(CCN(S(=O)(=O)N(C)C)C3)C2)o1 (stereo not drawn) | -9.63%
16 | CC(C)Nc1nc(N2CCOCC2)nc2c1CN(Cc1ccoc1)CC2 | -12.3%
17 | CC(=O)NCC(=O)N1CCN(CC2CC2)c2ncccc2C1 | -9.1%
18 | c1ccc(-c2nnn3c2COC(CNCC2CCOCC2)C3)cc1 (stereo not drawn) | -5.85%
19 | Cn1cccc1C(=O)N1CCc2ncnc(C3CC3)c2CC1 | -0.695%
20 | O=C1NC2(CCNCC2)CC1c1cccnc1 (stereo not drawn) | -7.17%
21 | CCO[C@@H]1CCN(C(=O)c2ccc[nH]2)[C@@H]1Cc1cnn(C)c1 | -2.67%
22 | CCO[C@@H]1CCN(C(=O)c2cscn2)[C@@H]1Cc1cnn(C)c1 | -10.2%
23 | CO[C@H]1CCN(C(=O)Cc2ccccn2)[C@H]1Cc1ccncc1 | -7.06%
24 | C[C@@H]1CN(C(=O)c2ccsc2)C[C@]12CCN(c1ccsc1)C2=O | 1.23%
25 | O=C(c1ccc2c(c1)OCO2)N1CCC[C@]2(C[C@H](OCC3CC3)CO2)C1 | -9.71%
26 | O=C(c1cccs1)N1CCC2(C1)c1ccccc1S(=O)(=O)N2CC1CC1 (stereo not drawn) | -3.76%

Row | Compound | cytotoxicity at 70.5 h
27 | COCCC(=O)N1CC[C@@H]2O[C@@H](C)C[C@H]2C1 | -15.5%
28 | O=C(c1cscn1)N1CCC[C@]2(C[C@H](OCC3CC3)CO2)C1 | -5.48%
29 | COc1ccccc1CN1CCC2(CC1)CC(Oc1ccccn1)CO2 (stereo not drawn) | 47.3%
30 | Cc1nc(NCC2CC2)nc2c1COCC21CCN(C)C1 (stereo not drawn) | -3.52%
31 | O=C(C1CCOC1)N1C[C@H]2CN(Cc3nccs3)C[C@H]2C1 (stereo partly drawn) | -2.75%
32 | Cc1cc(CN2CC[C@H]3C[C@H](c4nccs4)O[C@@H]3C2)no1 | -15.6%
33 | O=C(c1ccc[nH]1)N1C[C@H]2CN(Cc3cccc(F)c3)C(=O)[C@H]2C1 | -0.293%
34 | Cc1ncoc1C(=O)N1C[C@H]2CCC[C@@]2(COCC2CCOCC2)C1 | -12.7%
35 | Cc1noc(C)c1CN1CC[C@H]2C[C@@H](c3ccncn3)O[C@@H]2C1 | -10.7%
36 | Cn1cc(CN2CCCC3(CCN(Cc4cccnc4)C3=O)C2)cn1 (stereo not drawn) | -13.4%
37 | CNC(=O)[C@@]12CCO[C@@H]1CCN(S(=O)(=O)c1cccc(C)c1)C2 | -5.31%
38 | CC(=O)N1CCC2(CCN(C(=O)c3ccc(C)c(C(F)(F)F)c3)CC2)C1 | 37.6%
39 | CCC1=N[C@@]2(CC[C@@H]3CN(C(=O)NCc4ccccc4)C[C@@H]32)C(=O)N1C | 26.3%
40 | CC(C)N1CCO[C@H]2CN(C(=O)c3ccc(N(C)C)cc3)C[C@H]21 | -2.38%
41 | CC(C)NC(=O)C1CN(C(=O)N2CCCC2)CC12CCOCC2 (stereo not drawn) | -1.86%
42 | O=C(c1ccccn1)C1CCCN(c2nccc(CCC(F)(F)F)n2)C1 (stereo not drawn) | -13.1%
43 | c1ccc(-c2nnc(CN3C[C@@H]4CC[C@H](C3)N(CC3CCC3)C4)o2)cc1 | 18.8%
44 | COCCN(C/C=C/c1ccccc1)Cc1ccccn1 | 6.25%
45 | O=C(NCCc1cccnc1)C1CCCN(Cc2ccco2)C1 (stereo not drawn) | 16.1%
46 | Cc1ccccc1C(Nc1ncnc2c1CCNC2)c1ccccc1 (stereo not drawn) | -1.58%
47 | CCOC(=O)CC(C)Nc1nc(C2CCCC2)nc2c1cnn2C (stereo not drawn) | -12.8%
48 | CC1(c2ccccc2)CCC(=O)N(CCN2CCCOC2=O)C1 (stereo not drawn) | -6.79%
49 | CCN1CC(NC(=O)Nc2nc(C)n(C(C)C)n2)CC1=O (stereo not drawn) | 9.96%
50 | CCC[C@H]1CN(S(=O)(=O)c2ccccc2)C[C@@H]1N | 16.4%
51 | C=C(C)COc1cccc(CN(C)C(C)c2ccncn2)c1 (stereo not drawn) | -4.71%
52 | CNc1nc(N2C[C@H](NC(=O)CCOC)[C@@H](C3CC3)C2)nc2c1CCC2 | -15.7%

Row | Compound | cytotoxicity at 70.5 h
53 | Cc1cc(C)c(C(=O)NC(c2nnc3n2CCNCC3)C(C)C)c(C)c1 (stereo not drawn) | -5.04%
54 | Cc1c(C(C)NC2CCCC2)cnn1-c1ccc(F)cc1F (stereo not drawn) | 0.586%
55 | c1cc(-c2nc3c(c(NCCc4c[nH]cn4)n2)CCNCC3)ccn1 | 5.61%
56 | Cc1ncsc1C(=O)N[C@@H](Cc1ccccc1)C(N)=O | -1.24%
57 | CC(C)n1cnnc1CN1CCC2(CCCN(C3CCCCC3)C2=O)C1 (stereo not drawn) | -2.59%
58 | COc1ccc(C(=O)NC2CC2)c(OC2CCN(CC3CC3)CC2)c1 | -2.04%
59 | O=C(c1cccnc1)N1CCC2(CC1)CNc1c(F)cccc12 | -1.96%
60 | CO[C@@H]1CCN(C(=O)Cc2ccc(F)cc2)[C@@H]1Cc1cccnc1 | -3.63%
61 | Cn1ccnc1CN1CCC2(CC1)COCCN(S(C)(=O)=O)C2 | -7.67%
62 | CNC(=O)[C@H]1C[C@@H]2CN(Cc3ccc(C)cc3)C[C@H]1O2 | -6.44%
63 | CNC(=O)[C@H]1C[C@@H]2CN(Cc3ccccc3)C[C@H]1O2 | -5.88%
64 | Cc1ccc(CN2CCc3onc(C(=O)N4CCCC4)c3C2)o1 | -6.06%
65 | COCC1COCCC12CCN(Cc1cccs1)CC2 (stereo not drawn) | -7.86%
66 | CN(C)C(=O)CN1CCC2(CCCN(Cc3cccn3C)C2)C1=O (stereo not drawn) | 25.7%
67 | O=C(NC1CC1)[C@H]1C[C@@H]2CCN(CCc3ccccc3)C[C@H]2O1 | -11.8%
68 | O=C(NC[C@]12COC[C@H]1CN(C1CCOCC1)C2)c1ccco1 | -0.469%
69 | CN(Cc1cn2c(n1)CN(C(=O)CC1CC1)CC2)Cc1ccco1 | -4.98%
70 | Cn1nnc2c1CCN(CC1CC1)C2COCc1ccccc1 (stereo not drawn) | -6.64%
71 | O=C(c1cccc(Cl)c1)N1CCCn2c(CN3CCCCC3)nnc2C1 | -1.86%
72 | c1ncn(Cc2cnc3n2CCN(Cc2ccsc2)CC3)n1 | 1.42%
73 | O=C1CCC2(CCN(Cc3nccs3)CC2)N1Cc1ccccc1 | -7.75%
74 | COc1ccc(CN2CCC3(CC(=O)N(c4cncnc4)C3)C2)cc1 (stereo not drawn) | -15.2%
75 | O=C(CC1CC1)N1CC[C@H]2[C@@H]1CCC(=O)N2c1cccnc1 | -16.4%
76 | N#Cc1ccc(C(=O)N2CC[C@H]3[C@@H]2CCC(=O)N3c2cccnc2)cc1 | -6.84%
77 | CN(C)c1ncnc2c1CCN(CC1CCCC1)CC2 | -13.2%
78 | O=C(Cc1ccsc1)N1C[C@@H]2CN(Cc3ccoc3)CCO[C@@H]2C1 | -11.4%

Row | Compound | cytotoxicity at 70.5 h
79 | CCS(=O)(=O)NC[C@]12COC[C@H]1CN(Cc1cccc(OC)c1)C2 | -11.2%
80 | Cn1cc(CN2CCOCC3(C2)CN(c2ccccc2)C(=O)CO3)cn1 (stereo not drawn) | -5.28%
81 | COCCN(C)C[C@@H]1CCC[C@@H]2CN(c3cc(OC)ncn3)C[C@@H]21 | -4.84%
82 | CS(=O)(=O)N1CCC[C@]2(C[C@@H](Oc3ncccc3F)CO2)C1 | -5.05%
83 | Fc1cnc(N2CCC3(CC2)CN(Cc2cccs2)CCO3)nc1 | -6.3%
84 | O=C(C[C@@H]1COC[C@H]2CN(C3CCCC3)C[C@@H]12)NCc1cccnc1 | -8.82%
85 | O=C(C[C@@H]1COC[C@H]2CN(CC3CC3)C[C@@H]12)NCc1cccnc1 | -11.6%
86 | Cc1cccc(CN2CC[C@H]3OCC[C@@]3(C(=O)N3CCCO3)C2)n1 | -2.84%
87 | Cc1ccc(N2C[C@H](C)[C@]3(CCN(c4cccnc4)C3=O)C2)nn1 | -3.28%
88 | O=C1[C@@H]2CCN(Cc3ccoc3)C[C@@H]2OCCN1Cc1cccnc1 | -20.5%
89 | c1cncc(OC[C@@H]2CC[C@H]3[C@H](CCN3Cc3cccs3)O2)c1 | -4.43%
90 | Cn1cc(CN2C[C@@H]3COC[C@@H](C(=O)N4CCCCO4)[C@@H]3C2)cn1 | -1.2%
91 | c1cnc(N2CCOC3(CCN(CC4CCCCC4)CC3)C2)nc1 | -4.82%
92 | Cc1noc(C)c1CN1CCN(CC2CC2)c2ncccc2C1 | -5.96%
93 | CN(Cc1ccco1)[C@@H]1CN(Cc2ccco2)[C@@H]2CCCO[C@H]12 | -9.38%
94 | O=C(Cc1ccccn1)N1CCC2(CC1)CC(Oc1ccccn1)CO2 (stereo not drawn) | -9.02%
95 | COc1ccc(CN2C[C@@H]3OCCN(CC4CCCO4)[C@@H]3C2)cc1 (stereo partly drawn) | -19.1%
96 | O=C1CO[C@@H]2CN(Cc3cccs3)C[C@H]2N1Cc1ccncc1 | 7.47%
97 | c1cn2c(n1)CN(CC1CC1)CC(CN1CCOCC1)C2 (stereo not drawn) | -7.21%
98 | c1cnn(C[C@@H]2C[C@@H]3CN(CC4CC4)CC[C@@H]3N2c2nccs2)c1 | 0.124%
99 | CN1CCN(Cc2cn3c(n2)CN(C2CCOCC2)CC3)CC1 | -6.56%
100 | CO[C@H]1CCN(Cc2c(C)noc2C)[C@@H]2CN(Cc3ccncc3)C[C@H]12 | -5.37%
101 | O=C(Nc1cccnc1)[C@H]1CN(Cc2nccs2)C[C@H]2OCC[C@@H]12 | 35.5%
102 | CN(Cc1ccccn1)C1CC2(CCN(Cc3cccnc3)CC2)C1 | 5.08%
103 | Cc1noc(C)c1CN1CCN(Cc2ccncc2)c2ncccc2C1 | -7.22%
